Test results from patent US11814367B2, “Inhibitors of glycogen synthase 1 (GYS1) and methods of use thereof” (Maze Therapeutics, Inc., priority 2021, dated 2023).

Columns and labels:
[1] = system: hGYS1 enzyme / glycogen synthesis in HeLa cells; test: GYS1 cell based assay (glycogen synthesis, Glucose-glo); design: species or system human; conditions: 24 h incubation, 20 mM glucose, geometric mean of at least 2 runs
Source text: The GYS1 cell based assay is a bioluminescent assay that quantifies the glucose resulting from glycogen digestion; the quantified glucose is an indirect measure of GYS1 glycogen synthesis. Newly synthesized glycogen is digested using Glucoamylase; the resulting glucose is quantified by using the Glucose-glo assay kit from Promega. Glucose-glo works by coupling glucose oxidation and NADH production with a bioluminescent system that is activated with NADH. Glucose is oxidized by Glucose dehydrogenase and the reaction reduces NAD+ to NADH; NADH activates Reductase which reduces a pro-luciferin Reductase Substrate to luciferin. Luciferin is detected in a luciferase reaction using Ultra-Glo rLuciferase and ATP, and the luminesce produced is proportional to the glucose in the sample. The luminescence is measured as a single point read in a plate reader.
Compounds that inhibit the hGYS1 enzyme and, subsequently, the glycogen synthesis in cells, were tested using assay ready plates (white, clear bottom 384 well plates) in a final DMSO reaction volume of 1% DMSO. Compounds in the assay ready plates were mixed with media with no additives, except for 20 mM glucose prior to cell addition. HeLa cells were starved in media with no additives, except for 1× Glutamax for 24 h. Starved HeLa cells were plated, in a 1:1 ratio to the media in the assay ready plate and incubated for 24 h at 37° C. and 5% C02. Cells were washed in 1×PBS buffer and lysed in lysis buffer containing 50% 1×PBS and 25% 0.3 N HCl of the final volume in the well or reaction volume; cells were incubated with lysis buffer for 10 minutes and quenched with the remaining 25% of the reaction volume that consisted of 450 mM Tris pH 8.0. Lysates were mixed in a 1:1 ratio with Glucoamylase in 100 mM Sodium Acetate buffer, pH 5.3; the mixture was incubated for 1 h at 37° C. The digested lysate was mixed in a 1:1 ratio with Glucose-glo detection mixture as per vendor recommendations (Luciferase detection buffer, Reductase, Reductase substrate, Glucose dehydrogenase, and NAD) in read-out plates (solid white 384-well plates) and incubated for 1 h at RT. The plates were read using a plate reader with luminescence capabilities. Each compound concentration Relative Luminescence Unit (RLU) was averaged and normalized to the average RLU of the positive and negative controls to obtain a percentage inhibition. The normalized data vs. concentration was plotted; to determine the half-maximal concentration (IC50), the Levenberg-Marquardt algorithm was used to fit a Hill equation to the dose response data.
The results are shown in Table 3 below, which reports the IC50 of each compound. Unless otherwise specified, IC50 values are reported as the geometric mean of at least 2 assay runs on separate days. As shown in the table below, the compounds of the present invention are potent inhibitors of human GYS1. Unless otherwise specified, IC50 values are reported as the geometric mean of at least two assay runs on separate days. Each run represents the average of a technical replicate, where each compound was assayed twice in the same plate. A superscript “#” symbol in Table 3 indicates results from a single assay run.

[2] = target: hGYS1 enzyme (recombinant hGYS1/GN1 protein) (Homo sapiens (Human), UniProt P13807); test: GYS1 coupled enzyme assay (PK/LDH); format: biochemical; conditions: hGYS1/GN1 50 nM, UDP-Glucose 0.8 mM, G6P 1 mM; geometric mean of at least 2 runs
hGYS1 enzyme (recombinant hGYS1/GN1 protein), sequence (P13807 whole entry): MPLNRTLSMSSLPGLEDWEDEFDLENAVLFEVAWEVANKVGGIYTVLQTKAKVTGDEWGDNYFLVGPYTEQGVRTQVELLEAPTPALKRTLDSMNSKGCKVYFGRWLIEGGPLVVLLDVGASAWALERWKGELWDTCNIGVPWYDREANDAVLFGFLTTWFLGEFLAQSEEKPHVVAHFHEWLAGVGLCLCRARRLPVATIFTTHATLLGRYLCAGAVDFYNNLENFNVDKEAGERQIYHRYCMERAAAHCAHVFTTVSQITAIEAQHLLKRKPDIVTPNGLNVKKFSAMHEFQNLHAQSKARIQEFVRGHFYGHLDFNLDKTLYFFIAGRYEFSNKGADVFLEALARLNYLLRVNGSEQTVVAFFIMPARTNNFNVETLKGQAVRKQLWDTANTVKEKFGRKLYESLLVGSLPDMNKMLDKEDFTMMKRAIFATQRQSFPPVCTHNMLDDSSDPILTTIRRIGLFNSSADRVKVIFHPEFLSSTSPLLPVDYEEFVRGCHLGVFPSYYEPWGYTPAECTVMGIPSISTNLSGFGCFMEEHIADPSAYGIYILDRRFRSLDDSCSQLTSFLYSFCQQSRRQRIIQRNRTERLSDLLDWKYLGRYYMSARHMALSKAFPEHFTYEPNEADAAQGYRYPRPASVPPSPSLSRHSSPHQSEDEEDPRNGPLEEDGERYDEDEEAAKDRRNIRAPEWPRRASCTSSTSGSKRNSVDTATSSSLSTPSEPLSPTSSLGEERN
hGYS1 enzyme (recombinant hGYS1/GN1 protein), sequence (P46976 whole entry partner): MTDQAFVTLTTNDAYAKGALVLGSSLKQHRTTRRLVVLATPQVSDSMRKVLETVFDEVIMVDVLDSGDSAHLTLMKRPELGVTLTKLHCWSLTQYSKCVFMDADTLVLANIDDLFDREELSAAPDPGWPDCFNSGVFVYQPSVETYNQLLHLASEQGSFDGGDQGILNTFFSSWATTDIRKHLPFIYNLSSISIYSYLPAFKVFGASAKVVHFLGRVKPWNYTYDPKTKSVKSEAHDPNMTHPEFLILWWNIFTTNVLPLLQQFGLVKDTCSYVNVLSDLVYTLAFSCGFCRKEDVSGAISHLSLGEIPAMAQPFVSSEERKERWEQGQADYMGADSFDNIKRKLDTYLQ

Row | Structure (SMILES) | IC50 ([1]; Homo sapiens, HeLa, 24 h) | IC50 [2] | IC50 [1]
1 | CC(C)c1ccc([C@H](NC(=O)[C@@H]2C[C@@H](F)CN2C(=O)Cc2cnn[nH]2)c2ccccc2)nc1F (relative stereo) [Compound 776, (2S,4R)-4-fluoro-N-[(R*)-[6-fluoro-5-(propan-2-yl)pyridin-2-yl](phenyl)methyl]-1-[2-(1H-1,2,3-triazol-5-yl)acetyl] pyrrolidine-2-carboxamide] | > 9010 nM | 1150 nM | –
2 | O=C(NC(c1ccccc1)c1ccc(C2CC2)cn1)[C@@H]1C[C@@H](F)CN1C(=O)Cc1cnn[nH]1 (single isomer, unassigned) [Compound 498, (2S,4R)-1-(2-(1H-1,2,3-triazol-5-yl)acetyl)-N—((R) or (S)-(5-cyclopropylpyridin-2-yl)(phenyl)methyl)-4-fluoropyrrolidine-2-carboxamide] | – | > 10000 nM | > 10000 nM
3 | CC(C)c1cnc(C(NC(=O)[C@@H]2C[C@@H](F)CN2C(=O)Cc2cnn[nH]2)c2ccccc2)cc1C(F)(F)F (single isomer, unassigned) [Compound 608, (2S,4R)-4-fluoro-N-[(S) or (R)-phenyl[5-(propan-2-yl)-4-(trifluoromethyl)pyridin-2-yl]methyl]-1-[2-(1H-1,2,3-triazol-5-yl)acetyl]pyrrolidine-2-carboxamide] | > 10000 nM | 2860 nM | –
4 | O=C(NC(c1ccccc1)c1ccc(C2CCC2)cn1)[C@@H]1C[C@@H](F)CN1C(=O)Cc1cnn[nH]1 (single isomer, unassigned) [Compound 610, (2S,4R)-N-[(S) or (R)-(5-cyclobutylpyridin-2-yl)(phenyl)methyl]-4-fluoro-1-[2-(1H-1,2,3-triazol-5-yl)acetyl]pyrrolidine-2-carboxamide] | 1010 nM | 107 nM | –
5 | COc1nc(C(NC(=O)[C@@H]2C[C@@H](F)CN2C(=O)Cc2cnn[nH]2)c2ccccc2)ccc1C(C)C (single isomer, unassigned) [Compound 612, (2S,4R)-4-fluoro-N-[(S) or (R)-[6-methoxy-5-(propan-2-yl)pyridin-2-yl] (phenyl)methyl]-1-[2-(1H-1,2,3-triazol-5-yl)acetyl]pyrrolidine-2-carboxamide] | > 29000 nM | 2180 nM | –
6 | Cc1cc(C(NC(=O)[C@@H]2C[C@@H](F)CN2C(=O)CNC(=O)N(C)C)c2cccnc2N)ccc1C(C)C (single isomer, unassigned) [Compound 622, (2S,4R)-N-[(R) or (S)-(2-aminopyridin-3-yl)[3-methyl-4-(propan-2-yl)phenyl]methyl]-1-{2-[(dimethylcarbamoyl)amino]acetyl}-4-fluoropyrrolidine-2-carboxamide] | > 10000 nM | 443 nM | –
7 | Cc1cc(C(NC(=O)[C@@H]2C[C@@H](F)CN2C(=O)Cc2cnn[nH]2)c2cccnc2N)ccc1C(C)C (single isomer, unassigned) [Compound 624, (2S,4R)-N-[(R) or (S)-(2-aminopyridin-3-yl)[3-methyl-4-(propan-2-yl)phenyl]methyl]-4-fluoro-1-[2-(1H-1,2,3-triazol-5-yl)acetyl]pyrrolidine-2-carboxamide] | 5790 nM | 408 nM | –
8 | COc1ncccc1C(NC(=O)[C@@H]1C[C@@H](F)CN1C(=O)Cc1cnn[nH]1)c1ccc(C2(C)CC2)c(F)c1 (single isomer, unassigned) [Compound 626, (2S,4R)-4-fluoro-N-[(R) or (S)-[3-fluoro-4-(1-methylcyclopropyl)phenyl](2-methoxypyridin-3-yl)methyl]-1-[2-(1H-1,2,3-triazol-5-yl)acetyl]pyrrolidine-2-carboxamide] | > 30000 nM | 805 nM | –
9 | Cc1ncccc1C(NC(=O)[C@@H]1C[C@@H](F)CN1C(=O)Cc1cnn[nH]1)c1ccc(C2(C)CC2)c(F)c1 (single isomer, unassigned) [Compound 627, (2S,4R)-4-fluoro-N-[(R) or (S)-[3-fluoro-4-(1-methylcyclopropyl)phenyl](2-methylpyridin-3-yl)methyl]-1-[2-(1H-1,2,3-triazol-5-yl)acetyl]pyrrolidine-2-carboxamide] | 29500 nM | 1620 nM | –
10 | CC(C)c1ccc(C(NC(=O)[C@@H]2C[C@@H](F)CN2C(=O)Cc2cnn[nH]2)c2ncc3ccccn23)nc1F (single isomer, unassigned) [Compound 628, (2S,4R)-4-fluoro-N-[(R) or (S)-[6-fluoro-5-(propan-2-yl)pyridin-2-yl]({imidazo[1,5-a]pyridin-3-yl})methyl]-1-[2-(1H-1,2,3-triazol-5-yl)acetyl]pyrrolidine-2-carboxamide] | > 30000 nM | 2780 nM | –
11 | CC(C)c1ccc(C(NC(=O)[C@@H]2C[C@@H](F)CN2C(=O)Cc2cnn[nH]2)c2ncn3ccccc23)nc1F (single isomer, unassigned) [Compound 629, (2S,4R)-4-fluoro-N-[(S) or (R)-[6-fluoro-5-(propan-2-yl)pyridin-2-yl]({imidazo[1,5-a]pyridin-1-yl})methyl]-1-[2-(1H-1,2,3-triazol-5-yl)acetyl]pyrrolidine-2-carboxamide] | > 24000 nM | 1480 nM | –
12 | NC(=O)NCC(=O)N1C[C@H](F)C[C@H]1C(=O)N[C@@H](c1ccccc1)c1ccc(C2CC2)c(F)n1 [Compound 302, (2S,4R)-1-[2-(carbamoylamino)acetyl]-N-[(S)-(5-cyclopropyl-6-fluoropyridin-2-yl)(phenyl)methyl]-4-fluoropyrrolidine-2-carboxamide] | 1230 nM | – | –
13 | O=C(N[C@@H](c1ccccc1)c1ccc(C2CC2)c(F)n1)[C@@H]1C[C@@H](F)CN1C(=O)CNC(=O)N1CCC1 [Compound 305, (2S,4R)-1-{2-[(azetidine-1-carbonyl)amino]acetyl}-N-[(S)-(5-cyclopropyl-6-fluoropyridin-2-yl)(phenyl)methyl]-4-fluoropyrrolidine-2-carboxamide] | 630 nM | – | –
14 | CC(C)c1ccc([C@@H](NC(=O)[C@@H]2C[C@@H](F)CN2C(=O)CNC(=O)N(C)C)c2ccccc2)cc1F [Compound 361, (2S,4R)-1-{2-[(dimethylcarbamoyl)amino]acetyl}-4-fluoro-N-[(S)-[3-fluoro-4-(propan-2-yl)phenyl](phenyl)methyl] pyrrolidine-2-carboxamide] | 210 nM | – | –
15 | O=C(N[C@H](c1ccccc1)c1ccc(C2CC2)c(F)n1)[C@@H]1C[C@@H](F)CN1C(=O)Cn1cnc2ccccc21 [Compound 716, (2S,4R)-1-[2-(1H-1,3-benzodiazol-1-yl)acetyl]-N-[(R)-(5-cyclopropyl-6-fluoropyridin-2-yl)(phenyl)methyl]-4-fluoropyrrolidine-2-carboxamide] | 22300 nM | – | –
16 | CC(C)c1ccc([C@@H](NC(=O)[C@@H]2C[C@@H](F)CN2C(=O)Cn2cc(N3CCC3)nn2)c2ccccc2)nc1F [Compound 787, (2S,4R)-1-{2-[4-(azetidin-1-yl)-1H-1,2,3-triazol-1-yl]acetyl}-4-fluoro-N-[(S)-[6-fluoro-5-(propan-2-yl)pyridin-2-yl](phenyl)methyl] pyrrolidine-2-carboxamide] | 130 nM | – | –
17 | COc1nc(CC(=O)N2C[C@H](F)C[C@H]2C(=O)N[C@@H](c2ccccc2)c2ccc(C(C)C)c(F)n2)nn1C [Compound 800, (2S,4R)-4-fluoro-N-[(S)-[6-fluoro-5-(propan-2-yl)pyridin-2-yl](phenyl)methyl]-1-[2-(5-methoxy-1-methyl-1H-1,2,4-triazol-3-yl)acetyl] pyrrolidine-2-carboxamide] | 180 nM | – | –
18 | CC(C)c1ccc([C@@H](NC(=O)[C@@H]2C[C@@H](F)CN2C(=O)Cc2nc(C(F)(F)F)co2)c2ccccc2)nc1F [Compound 801, (2S,4R)-4-fluoro-N-[(S)-[6-fluoro-5-(propan-2-yl)pyridin-2-yl](phenyl)methyl]-1-{2-[4-(trifluoromethyl)-1,3-oxazol-2-yl]acetyl} pyrrolidine-2-carboxamide] | 380 nM | – | –
